Source: patent publication US9078712B2, “Preformed drug-eluting device to be affixed to an anterior spinal plate” (Warsaw Orthopedic, Inc., priority 2009, dated 2015)

Assay: Effect of autoclave sterilization on final drug concentration in silicone (FIG. 11)
Format: physicochemical
Conditions: starting concentration about 0.0738 wt %, autoclave about 30 minutes
Method: FIG. 11 illustrates the effect of sterilization on the final drug concentration, showing the degradation rate versus autoclave time, for example, with a starting concentration of about 0.0738 wt % rifampin in the silicone and running the autoclave about 30 minutes will result in a final concentration of about 0.054 wt % rifampin in the silicone sleeve.
The term “weight percent” or “wt %” means the ratio of the drug weight to the weight of the biocompatible matrix, e.g., the silicone after sterilization, for example, an initial concentration of rifampin of about 0.0738 wt % with about a 30 minute autoclave time will result in a final wt % of about 0.054 in the sterilized product.

final concentration of rifampin in the silicone after autoclave sterilization: about 0.054 wt %
SMILES: CO[C@H]1/C=C/O[C@@]2(C)Oc3c(C)c(O)c4c(O)c(c(/C=N/N5CCN(C)CC5)c(O)c4c3C2=O)NC(=O)/C(C)=C\C=C\[C@H](C)[C@H](O)[C@@H](C)[C@@H](O)[C@@H](C)[C@H](OC(C)=O)[C@@H]1C [rifampin]
